From patent publication US20230286970A1, “NOVEL OXADIAZOLE-BASED SELECTIVE HDAC6 INHIBITORS” (ITALFARMACO S.P.A., priority 2020, published 2023)
pIC50: −log10 of the molar value.

How the values were obtained:
[1] = target: recombinant human HDAC6 (Homo sapiens (Human), UniProt Q9UBN7); assay: Enzymatic screening, HDAC6 inhibition (fluorogenic FdL_G substrate); format: biochemical
Protocol: (§1) For each test compound, 100× concentrated DMSO solutions at 8 doses were prepared and then diluted in assay buffer (25 mM Tris-HCl, pH 8, 130 mM NaCl, 0.05% Tween-20, 10% Glycerol) to obtain 5× concentrated solutions in relation to the final concentrations (typical final concentration range—6.4-200000 nM or 0.18-50000 nM, final DMSO content—1%). Then 10 μL solution of each test compound concentration were placed on a 96-well plate in triplicate and 15 μL of 3.33× concentrated enzyme solution in the assay buffer containing 3.33× concentrated BSA (final BSA concentration—2 mg/mL for HDAC4, HDAC5 and HDAC9 or 1 mg/mL for other isoforms) and in the case of HDAC6-3.33× concentrated TCEP (final TCEP concentration—200 μM) were added to each well. After a period of preincubation (incubation times and temperatures vary for different isoforms and are shown in table 1) 25 μL of solution containing the substrate were added. As substrate, FLUOR DE LYS® deacetylase substrate (Enzo Life Sciences, cat: BML-KI104, FdL), FLUOR DE LYS®-Green substrate (Enzo Life Sciences, cat: BML-KI572, FdL_G) or Boc-Lys(Tfa)-AMC (Bachem, cat: 4060676.005, Tfal)—2× concentrated solution in assay buffer were used. Following a reaction period (reaction times and temperatures vary for different isoforms and are reported in Table 1), 50 μL of the development solution consisting of concentrate FLUOR DE LYS® developer I (Enzo Life Sciences, ca: BML-KI105), diluted 200 times in buffer (50 mM Tris-HCl, pH 8, 137 mM NaCl, 2.7 mM KCl, 1 mM MgCl2) plus 2 μM TSA was added and, after 25 minutes at room temperature in the dark, using the Victor 1420 Multilabel Counter Perkin Elmer Wallac instrument, the fluorescence reading was carried out.

[2] = target: recombinant human HDAC1 (Homo sapiens (Human), UniProt Q13547); assay: Enzymatic screening, HDAC1 inhibition (fluorogenic FdL_G substrate); format: biochemical
Chain of recombinant human HDAC1 (Q13547 whole entry): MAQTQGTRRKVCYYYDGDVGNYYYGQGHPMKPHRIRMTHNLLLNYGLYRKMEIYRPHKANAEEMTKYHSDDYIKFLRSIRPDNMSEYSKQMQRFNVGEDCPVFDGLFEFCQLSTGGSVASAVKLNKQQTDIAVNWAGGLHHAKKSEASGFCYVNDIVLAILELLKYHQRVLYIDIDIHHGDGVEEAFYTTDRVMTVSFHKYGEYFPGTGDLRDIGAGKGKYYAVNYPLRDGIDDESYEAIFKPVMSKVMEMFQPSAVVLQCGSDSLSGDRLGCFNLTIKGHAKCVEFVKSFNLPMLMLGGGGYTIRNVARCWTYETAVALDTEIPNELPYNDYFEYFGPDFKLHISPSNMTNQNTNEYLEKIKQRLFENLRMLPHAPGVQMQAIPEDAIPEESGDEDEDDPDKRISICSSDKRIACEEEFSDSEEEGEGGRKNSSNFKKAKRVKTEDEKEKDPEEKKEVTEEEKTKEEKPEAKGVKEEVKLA
Protocol: as §1

Chain of recombinant human HDAC6 (Q9UBN7 whole entry, canonical isoform): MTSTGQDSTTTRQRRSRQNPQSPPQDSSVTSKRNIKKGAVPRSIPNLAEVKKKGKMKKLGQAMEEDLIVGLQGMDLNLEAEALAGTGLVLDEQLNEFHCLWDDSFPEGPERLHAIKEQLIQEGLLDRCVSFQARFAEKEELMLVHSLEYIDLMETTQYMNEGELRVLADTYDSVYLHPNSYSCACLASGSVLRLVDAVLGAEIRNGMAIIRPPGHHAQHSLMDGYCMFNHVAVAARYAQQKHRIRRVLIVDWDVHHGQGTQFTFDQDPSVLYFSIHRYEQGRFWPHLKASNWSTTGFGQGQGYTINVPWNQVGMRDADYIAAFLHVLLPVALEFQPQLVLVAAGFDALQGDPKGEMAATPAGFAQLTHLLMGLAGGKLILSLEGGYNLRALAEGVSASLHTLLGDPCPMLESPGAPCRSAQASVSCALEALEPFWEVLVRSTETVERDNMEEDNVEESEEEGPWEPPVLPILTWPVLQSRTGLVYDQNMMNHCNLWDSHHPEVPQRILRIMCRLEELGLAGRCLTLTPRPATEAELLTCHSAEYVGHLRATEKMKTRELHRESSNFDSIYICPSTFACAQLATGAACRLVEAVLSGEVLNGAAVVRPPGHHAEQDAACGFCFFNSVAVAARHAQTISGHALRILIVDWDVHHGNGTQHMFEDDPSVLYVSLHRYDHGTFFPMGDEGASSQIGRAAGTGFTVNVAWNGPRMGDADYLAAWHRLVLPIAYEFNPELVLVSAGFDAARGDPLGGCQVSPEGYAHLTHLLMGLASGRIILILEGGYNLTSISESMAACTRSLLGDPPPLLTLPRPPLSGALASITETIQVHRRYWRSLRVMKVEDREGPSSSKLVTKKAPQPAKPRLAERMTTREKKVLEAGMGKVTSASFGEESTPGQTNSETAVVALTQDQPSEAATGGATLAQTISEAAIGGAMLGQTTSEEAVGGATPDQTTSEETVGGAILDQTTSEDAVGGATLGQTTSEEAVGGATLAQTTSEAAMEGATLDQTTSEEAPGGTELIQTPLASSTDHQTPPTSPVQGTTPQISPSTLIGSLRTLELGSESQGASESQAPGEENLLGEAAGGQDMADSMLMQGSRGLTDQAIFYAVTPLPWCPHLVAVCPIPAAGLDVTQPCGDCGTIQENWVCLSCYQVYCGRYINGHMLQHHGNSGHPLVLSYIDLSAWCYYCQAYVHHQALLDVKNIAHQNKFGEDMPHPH

pIC50 [1]	pIC50 [2]	SMILES
7.66	< 3.00	Cn1c(N)nc2cc(-c3cn(Cc4cc(F)c(-c5nnc(C(F)F)o5)cc4F)nn3)ccc21 [compound 350, 5-[1-[[4-[5-(difluoromethyl)-1,3,4-oxadiazol-2-yl]-2,5-difluorophenyl]methyl]triazol-4-yl]-1-methylbenzimidazol-2-amine]
7.28	< 3.70	FC(F)c1nnc(-c2ccc(Cn3cc(-c4ccc5nc(Cl)[nH]c5c4)nn3)cc2)o1 [compound 136, 2-(4-((4-(2-chloro-1H-benzo[d]imidazol-6-yl)-1H-1,2,3-triazol-1-yl)methyl)phenyl)-5-(difluoromethyl)-1,3,4-oxadiazole]
7.00	< 3.70	CC(c1ccc(-c2nnc(C(F)F)o2)c(F)c1)n1cc(-c2cccc(NC(=O)N3CCOCC3)c2)nn1 (centres unmarked) [compound 189, N-(3-(1-(1-(4-(5-(difluoromethyl)-1,3,4-oxadiazol-2-yl)-3-fluorophenyl)ethyl)-1H-1,2,3-triazol-4-yl)phenyl)morpholine-4-carboxamide]
6.66	3.00	CNc1ncc2cc(-c3cn(Cc4cc(F)c(-c5nnc(C(F)F)o5)cc4F)nn3)ccc2n1 [compound 391, 6-[1-({4-[5-(difluoromethyl)-1,3,4-oxadiazol-2-yl]-2,5-difluorophenyl}methyl)-1H-1,2,3-triazol-4-yl]-N-methylquinazolin-2-amine]
6.76	< 3.70	O=C(Nc1cccc(-c2cnn(Cc3ccc(-c4nnc(C(F)F)o4)cc3)c2)c1)N1CCOCC1 [compound 227, N-(3-(1-(4-(5-(difluoromethyl)-1,3,4-oxadiazol-2-yl)benzyl)-1H-pyrazol-4-yl)phenyl)morpholine-4-carboxamide]
7.40	< 3.00	Nc1nc2ccc(-c3cnn(Cc4ccc(-c5nnc(C(F)F)o5)cn4)c3)cc2s1 [compound 327, 6-[1-[[5-[5-(difluoromethyl)-1,3,4-oxadiazol-2-yl]pyridin-2-yl]methyl]pyrazol-4-yl]-1,3-benzothiazol-2-amine]
7.89	< 3.00	Fc1cc(Cc2nc(-c3ccc(NC4=NCCN4)cc3)no2)ccc1-c1nnc(C(F)F)o1 [compound 383, N-(4-(5-(4-(5-(difluoromethyl)-1,3,4-oxadiazol-2-yl)-3-fluorobenzyl)-1,2,4-oxadiazol-3-yl)phenyl)-4,5-dihydro-1H-imidazol-2-amine]
6.58	3.00	CCNc1ncc2cc(-c3cn(Cc4cc(F)c(-c5nnc(C(F)F)o5)cc4F)nn3)ccc2n1 [compound 394, 6-[1-({4-[5-(difluoromethyl)-1,3,4-oxadiazol-2-yl]-2,5-difluorophenyl}methyl)-1H-1,2,3-triazol-4-yl]-N-ethylquinazolin-2-amine]
–	< 3.70	C[C@H]1CN(c2ccc(-c3nnn(Cc4ccc(-c5nnc(C(F)F)o5)cc4)n3)cn2)CCN1 [compound 182, (S)-2-(difluoromethyl)-5-(4-((5-(6-(3-methylpiperazin-1-yl)pyridin-3-yl)-2H-tetrazol-2-yl)methyl)phenyl)-1,3,4-oxadiazole]
–	< 3.70	C[C@@H]1CN(c2ccc(-c3nnn(Cc4ccc(-c5nnc(C(F)F)o5)cc4)n3)cn2)CCN1 [compound 159, (R)-2-(difluoromethyl)-5-(4-((5-(6-(3-methylpiperazin-1-yl)pyridin-3-yl)-2H-tetrazol-2-yl)methyl)phenyl)-1,3,4-oxadiazole]
6.91	–	COc1ccc(-c2nnn(Cc3ccc(-c4nnc(C(F)F)o4)cc3)n2)cc1 [compound 204, 2-(difluoromethyl)-5-(4-((5-(4-methoxyphenyl)-2H-tetrazol-2-yl)methyl)phenyl)-1,3,4-oxadiazole]
7.00	–	CNc1ccc2cc(-c3nnn(Cc4cc(F)c(-c5nnc(C(F)F)o5)cc4F)n3)ccc2n1 [compound 504, 6-(2-(4-(5-(difluoromethyl)-1,3,4-oxadiazol-2-yl)-2,5-difluorobenzyl)-2H-tetrazol-5-yl)-N-methylquinolin-2-amine]
